Results reported in patent US6562865B1, “Composition comprising a tramadol material and an anticonvulsant drug” (Ortho-McNeil Pharmaceutical, Inc., priority 1999, dated 2003).
Like-named read-outs stand apart in the source and are kept apart here.

Key:
[1] = tested on: mechanical (tactile) allodynia in Chung Model rats; assay: Antiallodynic effect in the Chung Model (L5 spinal nerve ligation, paw withdrawal threshold with von Frey filaments); conditions: for ED50: Rattus norvegicus, po, read-out: ED50 (SEM) of drug alone
Procedure: The antiallodynic effect of the composition of the present invention in the Chung Model is expressed in % MPE (Maximum Possible Effect).
Pathogen-free, male albino Sprague-Dawley rats, 200 g, were purchased from Harlan Industries (Indianapolis, Ind.) and maintained on a 12-h light/dark cycle (lights on at 06:00 h) in a climate-controlled room with food and water available ad libitum.
The rats were anesthetized with isoflurane inhalant anesthesia. The left lumbar spinal nerve at the level of L5 was tightly ligated (4-0 silk suture) distal to the dorsal root ganglion and prior to entrance into the sciatic nerve, as described by Kim and Chung. The incisions were closed and the rats were allowed to recover under conditions described above. This procedure results in mechanical allodynia in the left hind paw. The sham operation, when performed, consisted of a similar surgical procedure lacking only the final ligation of the spinal nerve. Mechanical (tactile) allodynia was assessed by recording the pressure at which the affected paw (ipsilateral to the site of nerve injury) was withdrawn from graded stimuli (von Frey filaments ranging from 4.0 to 148.1 mN) applied perpendicularly to the plantar surface of the paw (between the footpads) through wire-mesh observation cages. A paw withdrawal threshold (PWT) was determined by sequentially increasing and decreasing the stimulus strength and analyzing withdrawal data using a Dixon non-parametric test (Chaplan, et al). Normal rats, sham operated rats, and the contralateral paw of L5 ligated rats withstand at least 148.1 mN (equivalent to 15 g) of pressure without responding.
The dosing materials were all prepared in the vehicle, a suspension of 0.5% hydroxypropyl methylcellulose in distilled water; drug weights were calculated as the free base. The tramadol solution was prepared first, and the appropriate volume of this solution was added to a neat amount of the anticonvulsant to give the final dosing suspension. Drug weights were calculated as the free base, and the ratios used were based on the respective ED50 values of tramadol and the anticonvulsant. The necessary doses for each ratio were prepared separately and dosed orally in a volume of 10 mL/kg per rat.
The Chung Model rats were all dosed orally with the composition comprising a combination of tramadol hydrochloride (calculated as the base) and the anticonvulsant drug (calculated as the base) or the composition of each agent separately dissolved in distilled water or dissolved in a suspension of 0.5% hydroxypropyl methylcellulose in distilled water. The dosing volume was 10 mL/kg.
The rats were intubated with various doses of tramadol hydrochloride alone, anticonvulsant drug alone, combined doses of tramadol hydrochloride and anticonvulsant or vehicle such as distilled water or a suspension of 0.5% hydroxypropyl methylcellulose in distilled water.
Within a certain time after the oral administration of tramadol hydrochloride alone, the anticonvulsant drug alone, the composition comprising a combination of tramadol hydrochloride and the anticonvulsant drug or vehicle alone, the PWT test was commenced. Each rat was used in the evaluation of only a single dose-ratio.
The analysis of possible synergistic effect for the compositions at each fixed ratio was determined (R. J. Tallarida, et al., Life Sci., 1989, 45, 947). This procedure involves the determination of the total amount in the mixture that is required to produce a specified synergistic antiallodynic effect at the 50% dose level (that is, the ED50mix or Zmix) and the corresponding total amount that would be expected under simple additivity (ED50add or Zadd). Where it is established that Zmix<Zadd for a specific fixed-ratio, then that composition has a synergistic antiallodynic effect. Both the quantities ED50mix and ED50add are random variables.

[2] = tested on: hot plate latency response in mice; assay: Antinociceptive effect in the 48° C. Mouse Hot Plate Model; assay type: in vivo; conditions: for % Maximal Possible Effect: 1.5 hours
Procedure: Mice were placed on a heated surface (48° C.) and the time interval (seconds) between placement and a shaking, licking, or tucking of the hind paw was recorded as the predrug latency response. This same procedure was repeated at various times after the test drug was administered p.o., 10 mL/kg.
The 48° C. Mouse Hot Plate was used to calculate the % maximal possible effect (% MPE) according to the formula: [formula]
The analysis of possible synergistic effect at each fixed ratio was determined as described by Tallarida, et al., above.

[3] = drug alone 100 mg/kg p.o., 2 hours
[4] = drug alone 250 mg/kg p.o., 2 hours
[5] = drug alone 500 mg/kg p.o., 2 hours
[6] = drug alone 25 mg/kg p.o., 2 hours
[7] = drug alone 50 mg/kg p.o., 2 hours
[8] = drug alone 75 mg/kg p.o., 2 hours
[9] = drug alone 125 mg/kg p.o., 2 hours
[10] = drug alone 150 mg/kg p.o., 2 hours
[11] = drug alone 30 mg/kg p.o., 1 hour
[12] = drug alone 60 mg/kg p.o., 1 hour
[13] = drug alone 90 mg/kg p.o., 1 hour

For NCC1(CC(=O)O)CCCCC1 [Gabapentin], the ED50 ([1]; 2 h) was 440 mg/kg, the “% MPE” value [1, 3] was 7.31 % MPE and the “% MPE” value [1, 4] was 15.62 % MPE. For the same compound, the “% MPE” value [1, 5] was 54.26 % MPE, the “% MPE” value ([1]; drug alone 750 mg/kg p.o., 2 hours) was 67.95 % MPE and the “% MPE” value ([1]; drug alone 1000 mg/kg p.o., 2 hours) was 85.34 % MPE.
In the case of Nc1nnc(-c2cccc(Cl)c2Cl)c(N)n1 [Lamotrigine], the ED50 ([1]; 2 h) is reported as 75.5 mg/kg, the “% MPE” value [1, 6] is reported as 5.48 % MPE and the “% MPE” value [1, 7] is reported as 21.95 % MPE. The “% MPE” value [1, 8] was 48.69 % MPE, the “% MPE” value [1, 9] was 75.09 % MPE and the “% MPE” value [1, 10] was 83.51 % MPE.
With CC1(C)O[C@@H]2[C@@H](CO[C@@]3(COS(N)(=O)=O)OC(C)(C)O[C@@H]23)O1 [Topiramate, 2,3,4,5-bis-O-(1-methylethylidene)-β-D-fructopyranose sulfamates] the ED50 ([1]; 2 h) was 98 mg/kg, the “% MPE” value [1, 6] was 11.54 % MPE and the “% MPE” value [1, 7] was 26.58 % MPE. The “% MPE” value [1, 3] was 56.42 % MPE, the “% MPE” value [1, 4] was 76.51 % MPE and the “% MPE” value [1, 5] was 94.38 % MPE. The “% Maximal Possible Effect” value ([2]; drug alone 10 mg/kg p.o.) was 0.82% and the “% Maximal Possible Effect” value ([2]; drug alone 30 mg/kg p.o.) was 9.71%.
In the case of NC(=O)OC[C@@H](O)c1ccccc1Cl [RWJ-333369, 1,2-ethanediol, 1-(2-chlorophenyl)-, 2-carbamate, (S)-], the ED50 ([1]; 1 h) is reported as 77.4 mg/kg, the “% MPE” value [1, 11] is reported as 5.57 % MPE and the “% MPE” value ([1]; drug alone 45 mg/kg p.o., 1 hour) is reported as 23.01 % MPE. For the same compound, the “% MPE” value [1, 12] was 30.43 % MPE, the “% MPE” value ([1]; drug alone 75 mg/kg p.o., 1 hour) was 54.54 % MPE and the “% MPE” value [1, 13] was 57.01 % MPE.
With COc1cccc(C2(O)CCCCC2CN(C)C)c1 (single isomer, unassigned) [Tramadol, (1R,2R or 1S,2S)-2-[(dimethylamino)methyl]-1-(3-methoxyphenyl)cyclohexanol] the ED50 ([1]; 1 h) was 48.6 mg/kg, the ED50 ([1]; 2 h) was 94.5 mg/kg and the “% MPE” value ([1]; drug alone 10 mg/kg p.o., 1 hour) was 16.79 % MPE. For the same compound, the “% MPE” value [1, 11] was 25.70 % MPE, the “% MPE” value [1, 7] was 3.77 % MPE and the “% MPE” value [1, 12] was 40.96 % MPE. For the same compound, the “% MPE” value [1, 8] was 20.62 % MPE, the “% MPE” value [1, 13] was 73.61 % MPE and the “% MPE” value [1, 3] was 45.38 % MPE. For the same compound, the “% MPE” value ([1]; drug alone 120 mg/kg p.o., 1 hour) was 84.05 % MPE, the “% MPE” value [1, 9] was 74.29 % MPE and the “% MPE” value [1, 10] was 100 % MPE. The ED50 ([2]; Mus musculus, po, 1.5 h, p.o., 48° C. hot plate, read-out: ED50 (SEM) at 1.5 Hours) was 35.1 mg/kg, the “% Maximal Possible Effect” value ([2]; drug alone 10 mg/kg p.o.) was 5.83% and the “% Maximal Possible Effect” value ([2]; drug alone 30 mg/kg p.o.) was 37.74%. For the same compound, the “% Maximal Possible Effect” value ([2]; drug alone 100 mg/kg p.o.) was 86.62%, the “% Maximal Possible Effect” value ([2]; drug alone 300 mg/kg p.o.) was 100% and the “antinociceptive effect in dose-response study” value ([2]; p.o., 48° C. hot plate) was “dose-dependent antinociceptive effect”. For the same compound, the “antinociceptive effect at the higher doses” value ([2]; p.o., 48° C. hot plate, higher doses) was “Full antinociceptive effect”.
